PMC11153716 (Frontiers in Pharmacology, 2024)
One block for each molecule: values may come before it.

Columns and labels:
Assay type in all cases: cell-based
α1β3γ2L GABAARs [1] = target: T1, α1β3γ2L GABAARs (Homo sapiens, UniProt P14867+P18507+P28472); test: whole-cell patch clamp, potentiation of GABA-induced current
T1 construct: gene GABRA1; full-length wild-type subunits co-transfected 1:1:1 (plasmid ratio) in HEK293T cells; EGFP from a separate EF1a promoter on the GABRG2 plasmid; with Gamma-aminobutyric acid receptor subunit gamma-2
T1 sequence (P14867 28-456): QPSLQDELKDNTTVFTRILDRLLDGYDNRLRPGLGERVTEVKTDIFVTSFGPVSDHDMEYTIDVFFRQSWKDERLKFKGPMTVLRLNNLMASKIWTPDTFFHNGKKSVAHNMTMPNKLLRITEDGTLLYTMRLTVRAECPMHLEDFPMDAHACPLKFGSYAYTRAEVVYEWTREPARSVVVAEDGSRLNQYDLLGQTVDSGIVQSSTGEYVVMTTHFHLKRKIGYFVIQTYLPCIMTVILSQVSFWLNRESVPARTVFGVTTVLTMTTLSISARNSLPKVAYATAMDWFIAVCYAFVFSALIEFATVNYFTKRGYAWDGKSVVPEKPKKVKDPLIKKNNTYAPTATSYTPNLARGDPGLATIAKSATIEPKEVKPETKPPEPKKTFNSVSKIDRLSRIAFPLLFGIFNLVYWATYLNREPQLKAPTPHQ
T1 sequence (P28472 26-473): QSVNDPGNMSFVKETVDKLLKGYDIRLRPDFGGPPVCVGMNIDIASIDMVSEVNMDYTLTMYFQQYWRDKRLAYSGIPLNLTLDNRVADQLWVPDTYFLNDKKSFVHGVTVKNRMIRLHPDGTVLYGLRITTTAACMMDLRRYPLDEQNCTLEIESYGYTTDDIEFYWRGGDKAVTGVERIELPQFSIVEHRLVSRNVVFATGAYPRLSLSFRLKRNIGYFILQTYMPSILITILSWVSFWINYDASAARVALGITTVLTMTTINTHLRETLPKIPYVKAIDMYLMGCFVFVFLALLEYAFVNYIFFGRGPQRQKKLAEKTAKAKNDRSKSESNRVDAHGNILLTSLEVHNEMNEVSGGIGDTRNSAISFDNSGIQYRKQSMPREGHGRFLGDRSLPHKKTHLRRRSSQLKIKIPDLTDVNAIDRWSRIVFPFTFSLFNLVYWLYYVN
T1 sequence (P18507 40-475): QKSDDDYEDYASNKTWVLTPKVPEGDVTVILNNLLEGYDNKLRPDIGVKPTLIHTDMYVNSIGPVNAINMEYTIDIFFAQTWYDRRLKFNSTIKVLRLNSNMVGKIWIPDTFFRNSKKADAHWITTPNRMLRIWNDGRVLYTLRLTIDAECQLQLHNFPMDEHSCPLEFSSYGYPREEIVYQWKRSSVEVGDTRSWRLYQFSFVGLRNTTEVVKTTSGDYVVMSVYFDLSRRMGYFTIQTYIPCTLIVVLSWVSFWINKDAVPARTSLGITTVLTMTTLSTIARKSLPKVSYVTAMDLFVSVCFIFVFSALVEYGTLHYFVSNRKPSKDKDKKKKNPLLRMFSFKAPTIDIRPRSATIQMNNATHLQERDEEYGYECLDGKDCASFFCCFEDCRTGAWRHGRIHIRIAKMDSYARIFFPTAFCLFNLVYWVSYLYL

α1β3γ2L GABAARs [2] = target: T1, α1β3γ2L GABAARs; test: whole-cell patch clamp, inhibition of GABA-induced current; details: 100 μM compound, 1 μM GABA, 15 s pre-treatment, -50 mV, pH 7.4, 22-25 °C
α1β3γ2L GABAARs [3] = target: T1, α1β3γ2L GABAARs; test: as above; details: -50 mV, pH 7.4, 22-25 °C
α1β3γ2L GABAARs [4] = target: T1, α1β3γ2L GABAARs; test: as above; details: -50 mV, pH 7.4, 22-25 °C; remark: listed apart in the source

SMILES: Cc1ccc([C@]2(C)CCCC2(C)C)cc1 [(+)-Cuparene]
EC50 (α1β3γ2L GABAARs [1]): 15.1 ± 5.94 µM

SMILES: COc1cc2c(cc1OC)C(=O)NCC2 [Corydaldine]
whole-cell patch clamp, inhibition of GABA-induced current (α1β3γ2L GABAARs [2]): kaempferol and corydaldine suppressed the GABA-induced current by more than half

I/I0 at 300 μM (α1β3γ2L GABAARs [3]): 0.89 ± 0.02
SMILES: O=C(O)[C@H](O)Cc1ccc(O)c(O)c1 [Danshensu]

I/I0 at 100 μM (α1β3γ2L GABAARs [4]): 0.63 ± 0.04
SMILES: O=C1c2c(O)cc(O)cc2O[C@H](c2cc(O)c(O)c(O)c2)[C@H]1O [Dihydromyricetin]

SMILES: CCOC1O[C@H](CO)[C@@H](O)[C@H](O)[C@H]1O (stereo partly shown) [Ethyl glucoside]
EC50 (α1β3γ2L GABAARs [1]): 37 ± 8.56 µM

SMILES: O=c1c(O)c(-c2ccc(O)cc2)oc2cc(O)cc(O)c12 [Kaempferol]
whole-cell patch clamp, inhibition of GABA-induced current (α1β3γ2L GABAARs [2]): kaempferol and corydaldine suppressed the GABA-induced current by more than half

EC50 (α1β3γ2L GABAARs [1]): 46.9 ± 6.33 µM
SMILES: C=C1CC/C=C(\C)CC[C@@H]2[C@@H]1CC2(C)C [β-Caryophyllene]
